Data reported in patent US7169817B2, “Bis-aromatic alkanols” (IRM LLC, priority 2002, dated 2007).

Tests used:
Assay in all cases: GTPγS binding assay using S1P receptor/HEK293 membrane preparations
Assay type in all cases: biochemical
Conditions in all cases: membranes of transiently transfected HEK293 cells
[1] = molecular target: T1, S1P5 (Homo sapiens, UniProt Q9H228)
T1 construct: expressed in transfected cells; host or cells: HEK293 (transient, calcium phosphate); crude membranes
From the text: (§1) A. In vitro: Binding Affinity of Compounds of Formula I to Individual Human S1P Receptors may be Determined in the Following Assays:
(§2) Transient Transfection of Human S1P Receptors into HEK293 Cells
(§3) EDG receptors and Gi proteins are cloned, and equal amounts of 4 cDNAs for the EDG receptor, Gi-α, Gi-β and Gi-γ are mixed and used to transfect monolayers of HEK293 cells using the calcium phosphate precipitate method (M. Wigler et al., Cell. 1977;11;223 and D S. Im et al., Mol. Pharmacol. 2000;57;753). Briefly, a DNA mixture containing 25 μg of DNA and 0.25 M CaCl is added to HEPES-buffered 2 mM Na2HPO4. Subconfluent monolayers of HEK293 cells are poisoned with […] chloroquine, and the DNA precipitate is then applied to the cells. After 4 hours, the monolayers are washed with phosphate-buffered saline and re-fed media (90% 1:1 Dulbecco's modified essential media (DMEM):F-12+10% fetal bovine serum). The cells are harvested 48–72 hours after addition of the DNA by scraping in HME buffer (in mM: 20 HEPES, 5 MgCl2, 1 EDTA, pH 7.4) containing 10% sucrose on ice, and disrupted using a Dounce homogenizer. After centrifugation at 800×g, the supernatant is diluted with HME without sucrose and centrifuged at 100,000×g for 1 hour. The resulting pellet is rehomogenized and centrifuged a second hour at 100,000×g. This crude membrane pellet is resuspended in HME with sucrose, aliquoted, and snap-frozen by immersion in liquid nitrogen. The membranes are stored at […] Protein concentration is determined spectroscopically by the Bradford protein assay.
(§4) GTPγS Binding Assay Using S1P Receptor/HEK293 Membrane Preparations
(§5) GTPγS binding experiments are performed as described by D S. Im et al., Mol. Pharmacol. 2000; 57:753. Ligand-mediated GTPγS binding to G-proteins is measured in GTP binding buffer (in mM: 50 HEPES, 100 NaCl, 10 MgCl2, pH 7.5) using 25 μg of a membrane preparation from transiently transfected HEK293 cells. Ligand is added to membranes in the presence of 10 μM GDP and 0.1 nM [^35S]GTPγS (1200 Ci/mmol) and incubated at 30° C. for 30 min. Bound GTPγS is separated from unbound using the Brandel harvester (Gaithersburg, Md.) and counted with a liquid scintillation counter.

[2] = molecular target: T2, S1P3 (Homo sapiens, UniProt Q99500)
T2 construct: expressed in transfected cells; host or cells: HEK293 (transient, calcium phosphate); crude membranes
From the text: as §1, §2, §3, §4, §5

[3] = molecular target: T3, S1P4 (Homo sapiens, UniProt O95977)
T3 construct: expressed in transfected cells; host or cells: HEK293 (transient, calcium phosphate); crude membranes
T3 sequence (O95977 1-384): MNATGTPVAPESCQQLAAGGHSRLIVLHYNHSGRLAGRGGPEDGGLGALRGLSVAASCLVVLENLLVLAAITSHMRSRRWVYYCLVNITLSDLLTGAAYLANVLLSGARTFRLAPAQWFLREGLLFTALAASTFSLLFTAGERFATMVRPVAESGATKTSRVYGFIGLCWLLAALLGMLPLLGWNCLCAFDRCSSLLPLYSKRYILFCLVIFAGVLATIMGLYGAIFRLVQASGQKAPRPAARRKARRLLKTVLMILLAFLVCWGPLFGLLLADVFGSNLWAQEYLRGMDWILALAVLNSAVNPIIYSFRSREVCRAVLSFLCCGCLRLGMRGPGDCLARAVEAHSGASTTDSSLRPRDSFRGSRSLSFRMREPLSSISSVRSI
From the text: as §1, §2, §3, §4, §5

[4] = molecular target: T4, S1P2 (Homo sapiens, UniProt O95136)
T4 construct: expressed in transfected cells; host or cells: HEK293 (transient, calcium phosphate); crude membranes
From the text: as §1, §2, §3, §4, §5

[5] = molecular target: T5, S1P1 (Homo sapiens, UniProt P21453)
T5 construct: expressed in transfected cells; host or cells: HEK293 (transient, calcium phosphate); crude membranes
From the text: as §1, §2, §3, §4, §5

T4 sequence (O95136 whole entry): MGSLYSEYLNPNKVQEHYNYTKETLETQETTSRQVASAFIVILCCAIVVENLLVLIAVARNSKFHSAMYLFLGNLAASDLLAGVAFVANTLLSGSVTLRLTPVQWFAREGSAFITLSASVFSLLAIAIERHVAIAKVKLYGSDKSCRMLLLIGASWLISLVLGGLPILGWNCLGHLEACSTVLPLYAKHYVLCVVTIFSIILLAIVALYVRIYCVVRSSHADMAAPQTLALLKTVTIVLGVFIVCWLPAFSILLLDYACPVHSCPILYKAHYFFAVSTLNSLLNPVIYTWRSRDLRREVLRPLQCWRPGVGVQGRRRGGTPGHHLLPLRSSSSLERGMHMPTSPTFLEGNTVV
T2 sequence (Q99500 whole entry): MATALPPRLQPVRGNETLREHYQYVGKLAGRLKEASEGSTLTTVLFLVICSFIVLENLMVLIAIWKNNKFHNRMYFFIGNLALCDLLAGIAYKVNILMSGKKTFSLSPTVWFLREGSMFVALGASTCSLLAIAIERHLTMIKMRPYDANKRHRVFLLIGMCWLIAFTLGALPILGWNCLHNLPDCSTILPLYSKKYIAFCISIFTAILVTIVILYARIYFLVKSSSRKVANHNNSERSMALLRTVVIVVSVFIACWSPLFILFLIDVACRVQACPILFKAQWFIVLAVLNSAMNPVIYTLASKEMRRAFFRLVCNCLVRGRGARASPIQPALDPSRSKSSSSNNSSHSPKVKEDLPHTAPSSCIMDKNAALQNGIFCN
T1 sequence (Q9H228 whole entry): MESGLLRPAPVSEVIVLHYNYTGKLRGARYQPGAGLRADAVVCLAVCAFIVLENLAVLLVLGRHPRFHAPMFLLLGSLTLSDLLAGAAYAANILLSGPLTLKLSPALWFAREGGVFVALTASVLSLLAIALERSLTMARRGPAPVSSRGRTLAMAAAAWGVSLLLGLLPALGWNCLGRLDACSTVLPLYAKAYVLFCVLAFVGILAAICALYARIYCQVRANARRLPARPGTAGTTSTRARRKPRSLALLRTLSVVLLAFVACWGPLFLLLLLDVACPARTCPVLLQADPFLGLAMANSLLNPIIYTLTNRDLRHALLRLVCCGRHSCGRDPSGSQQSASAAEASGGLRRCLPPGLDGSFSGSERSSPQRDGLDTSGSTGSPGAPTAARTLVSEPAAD
T5 sequence (P21453 whole entry): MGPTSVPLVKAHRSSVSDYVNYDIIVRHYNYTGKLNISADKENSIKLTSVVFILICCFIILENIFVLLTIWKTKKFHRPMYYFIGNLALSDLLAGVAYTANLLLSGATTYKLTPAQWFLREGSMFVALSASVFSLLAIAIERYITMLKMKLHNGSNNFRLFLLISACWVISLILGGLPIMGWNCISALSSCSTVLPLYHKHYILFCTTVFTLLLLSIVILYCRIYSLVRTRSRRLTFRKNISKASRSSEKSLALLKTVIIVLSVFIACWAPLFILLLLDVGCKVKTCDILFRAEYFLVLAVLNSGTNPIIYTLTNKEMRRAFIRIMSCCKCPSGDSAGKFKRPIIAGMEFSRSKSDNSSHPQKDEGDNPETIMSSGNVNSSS

EC50 [1] [nM] | EC50 [2] [nM] | EC50 [3] [nM] | EC50 [4] [nM] | EC50 [5] [nM] | Structure (SMILES)
1.1 | > 10000 | 1.2 | > 10000 | 0.33 | CCCCCc1ccc(-c2ccc(CCC(N)(CO)CO)cc2)cc1 [Example 36]
2.1 | 53.8 | > 10000 | > 10000 | 0.16 | CCCc1cc(-c2ccc(-c3ccc(CCC(N)(CO)CO)cc3)cc2)no1 [Example 41]
0.1 | 1.9 | > 10000 | > 10000 | 0.07 | NC(CO)(CO)CCc1ccc(-c2ccc(OCc3ccc(F)c(F)c3)cc2)cc1 [Example 63]
